Where two headings read alike, the source gives them in different places.
Legend:
human μ-opioid receptor = human μ-opioid receptor (Homo sapiens (Human), UniProt P35372); test: Forskolin-stimulated cAMP inhibition in HEK293 cells, μ-opioid receptor; format: cell-based; details: HEK293 cells highly expressing human μ-opioid receptor, read-out: MOR (EC50)
Experimental: (§1) Forskolin can stimulate the release of cAMP from HEK293 cells with high expression of human κ (or μ, or δ)-opioid receptors. […] The efficacy of the compounds of the invention as κ-opioid receptor agonists was determined by measuring the ability of the compounds of Examples to inhibit adenylate cyclase activity.
(§2) Cell culture: The HEK293 cell line highly expressing human κ (or μ, or δ)-opioid receptor were cultured in DMEM medium containing 10% FBS.
(§3) Stimulation: the test compound was 4-fold diluted in a gradient manner to obtain 10 concentrations, and 50 nl of each was transferred to a 384-well plate, and then 10 nl Forskolin was added; the cells were digested, re-suspended, and counted; and then 10 μl of cell suspension (5×10^5 cell/mL) was added, and the cells were mixed gently, and incubated at 23° C. for 60 minutes.
(§4) Detection: cAMP Assay Kit (Cisbio) was used, cAMPD2 and Anti-cAMP conjugate were added, and the resultant mixture was incubated for 1 h at room temperature. The plate was read using envision (Perkin Elmer) and EC50 was obtained by means of fitting with a four-parameter equation.

human δ-opioid receptor = human δ-opioid receptor (Homo sapiens (Human), UniProt P41143); test: Forskolin-stimulated cAMP inhibition in HEK293 cells, δ-opioid receptor; format: cell-based; details: HEK293 cells highly expressing human δ-opioid receptor, read-out: DOR (EC50)
Experimental: as §1, §2, §3, §4

human κ-opioid receptor = human κ-opioid receptor (Homo sapiens (Human), UniProt P41145); test: Forskolin-stimulated cAMP inhibition in HEK293 cells, κ-opioid receptor agonism; format: cell-based; details: HEK293 cells highly expressing human κ-opioid receptor, read-out: KOR (EC50)
Experimental: as §1, §2, §3, §4

cytochrome P450 CYP 2C19 = cytochrome P450 CYP 2C19 (Homo sapiens (Human), UniProt P33261); test: Inhibition of cytochrome P450 in human liver microsomes, CYP 2C19; format: in vitro ADME
Experimental: (§5) The human liver microsomes (0.253 mg/mL protein) containing cytochrome P450, test compounds (0.05-50 μM), CYPs substrates (10 μM […], 5 μM diclofenac, 30 μM mephenytoin, 5 μM dextromethorphan hydrobromide, 2 μM midazolam), 1.0 mM NADP were incubated at 37° C. for 10 minutes. Naflavone, sulfafenpyrazole, N-3-benzylnivan, quinidine, and ketoconazole were used as reference inhibitors.

[1] = Caco-2 membrane permeability assay; format: in vitro ADME; details: human, Caco-2, A-B direction, pH 7.4, 37° C.
Experimental: The Caco-2 cell line is a human colon adenocarcinoma cell line that differentiates in culture and is used to model the epithelial lining of the human small intestine. Compounds of the present invention were tested in a membrane permeability assay using Caco-2 cell membrane layer in a standard assay. The apparent permeability coefficient (Papp) can be determined in the apical-to-basolateral (A-B) direction across cell monolayers cultured on 96-well polycarbonate membrane filters. The compound was maintained at pH 7.4 on the […] at a concentration of 5 μM, and the test plate was gently shaken and incubated at 37° C. for 120 minutes. Samples were taken at time zero from the donor side and at the end of the incubation period from both the donor and acceptor sides. Samples were analyzed by HPLC-MS/MS. The Papp value (expressed as […]) was then calculated based on the appearance rate of compound on the recipient side. Papp can be calculated by the following equation: Papp=(VA×[drug]acceptor)/(Area×Time×[drug]initial, donor) wherein Papp is the apparent permeability; VA is the volume of the acceptor side, Area is the surface area of the membrane, [drug]initial, donor is the concentration on the donor side at time zero, [drug]acceptor is the concentration of the compounds on the recipient side at the end of the incubation period, Time is the total incubation time.

cytochrome P450 CYP 3A4 = cytochrome P450 CYP 3A4 (Homo sapiens (Human), UniProt P08684); test: Inhibition of cytochrome P450 in human liver microsomes, CYP 3A4; format: in vitro ADME
Experimental: as §5

cytochrome P450 CYP 2C9 = cytochrome P450 CYP 2C9 (Homo sapiens (Human), UniProt P11712); test: Inhibition of cytochrome P450 in human liver microsomes, CYP 2C9; format: in vitro ADME
Experimental: as §5

cytochrome P450 CYP 1A2 = cytochrome P450 CYP 1A2 (Homo sapiens (Human), UniProt P05177); test: Inhibition of cytochrome P450 in human liver microsomes, CYP 1A2; format: in vitro ADME
Experimental: as §5

cytochrome P450 CYP 2D6 = cytochrome P450 CYP 2D6 (Homo sapiens (Human), UniProt P10635); test: Inhibition of cytochrome P450 in human liver microsomes, CYP 2D6; format: in vitro ADME
Experimental: as §5

ICR male mice = test: Acetic acid writhing test in mice; format: in vivo; details: IV administration 15 minutes before 0.6% acetic acid i.p.; writhes within 15 min
Experimental: The analgesic effect of the compound of the invention was evaluated by measuring the analgesic ED50 of the compounds of Examples in the acetic acid writhing test in mice.
The ICR male mice (18-25 g) were randomly separated into the drug group and the model group. 15 minutes after IV administration, 0.6% (v/v) acetic acid solution was intraperitoneally injected at 10 mL/kg. The number of writhes of the mice within 15 min was counted. The inhibition rate on the writhes was calculated based on the number of writhes. The ED50 of the compound to be tested was calculated based on inhibition rate according to a four-parameter equation.

human δ-opioid receptor, sequence (P41143 whole entry, looked up): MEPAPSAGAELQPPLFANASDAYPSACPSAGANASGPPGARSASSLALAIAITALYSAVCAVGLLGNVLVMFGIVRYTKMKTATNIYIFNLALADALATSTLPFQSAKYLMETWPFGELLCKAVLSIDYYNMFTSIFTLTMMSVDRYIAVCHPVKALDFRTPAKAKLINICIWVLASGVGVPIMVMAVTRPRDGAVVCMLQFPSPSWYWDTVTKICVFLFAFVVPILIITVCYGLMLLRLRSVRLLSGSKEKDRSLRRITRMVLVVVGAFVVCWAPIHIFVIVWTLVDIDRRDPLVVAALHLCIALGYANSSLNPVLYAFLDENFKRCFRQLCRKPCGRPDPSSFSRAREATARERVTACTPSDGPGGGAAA
cytochrome P450 CYP 3A4, sequence (P08684 whole entry): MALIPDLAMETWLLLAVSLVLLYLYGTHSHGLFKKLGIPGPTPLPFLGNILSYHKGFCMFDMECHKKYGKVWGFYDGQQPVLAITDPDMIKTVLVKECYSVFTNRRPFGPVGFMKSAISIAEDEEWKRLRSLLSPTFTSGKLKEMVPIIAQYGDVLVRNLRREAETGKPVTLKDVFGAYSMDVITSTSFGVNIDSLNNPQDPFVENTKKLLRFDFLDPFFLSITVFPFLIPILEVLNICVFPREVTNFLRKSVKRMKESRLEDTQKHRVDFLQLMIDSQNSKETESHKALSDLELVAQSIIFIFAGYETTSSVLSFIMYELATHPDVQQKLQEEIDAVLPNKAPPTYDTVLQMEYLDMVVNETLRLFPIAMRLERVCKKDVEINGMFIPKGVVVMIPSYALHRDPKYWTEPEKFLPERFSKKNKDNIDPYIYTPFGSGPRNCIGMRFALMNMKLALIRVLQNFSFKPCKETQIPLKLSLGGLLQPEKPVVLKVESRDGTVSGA
cytochrome P450 CYP 2D6, sequence (P10635 whole entry): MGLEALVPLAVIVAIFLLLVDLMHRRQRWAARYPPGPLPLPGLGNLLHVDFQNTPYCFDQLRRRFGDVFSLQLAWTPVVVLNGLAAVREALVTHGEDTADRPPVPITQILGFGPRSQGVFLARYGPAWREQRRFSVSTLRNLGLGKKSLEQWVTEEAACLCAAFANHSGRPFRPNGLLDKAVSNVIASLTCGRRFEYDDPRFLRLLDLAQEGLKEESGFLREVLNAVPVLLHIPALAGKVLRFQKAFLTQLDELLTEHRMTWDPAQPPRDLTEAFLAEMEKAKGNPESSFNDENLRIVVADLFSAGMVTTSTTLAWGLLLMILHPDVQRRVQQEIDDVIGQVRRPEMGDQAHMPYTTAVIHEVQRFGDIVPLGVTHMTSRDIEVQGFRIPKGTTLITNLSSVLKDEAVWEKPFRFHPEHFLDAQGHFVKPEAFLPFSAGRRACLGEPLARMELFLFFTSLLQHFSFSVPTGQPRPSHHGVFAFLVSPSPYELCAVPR
cytochrome P450 CYP 1A2, sequence (P05177 whole entry): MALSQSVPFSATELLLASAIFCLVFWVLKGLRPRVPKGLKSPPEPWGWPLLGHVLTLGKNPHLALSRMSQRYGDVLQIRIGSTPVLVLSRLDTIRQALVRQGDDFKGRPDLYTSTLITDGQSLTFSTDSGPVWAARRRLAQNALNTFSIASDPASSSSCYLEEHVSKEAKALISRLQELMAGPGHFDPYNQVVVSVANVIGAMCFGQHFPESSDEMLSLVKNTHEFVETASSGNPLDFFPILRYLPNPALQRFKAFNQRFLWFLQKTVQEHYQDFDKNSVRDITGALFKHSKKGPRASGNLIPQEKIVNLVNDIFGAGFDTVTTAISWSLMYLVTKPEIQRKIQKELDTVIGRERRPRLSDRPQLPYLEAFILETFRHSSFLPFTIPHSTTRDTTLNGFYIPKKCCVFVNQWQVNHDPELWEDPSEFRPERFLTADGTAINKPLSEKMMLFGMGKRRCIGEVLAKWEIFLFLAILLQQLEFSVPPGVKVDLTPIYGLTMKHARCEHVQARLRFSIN
cytochrome P450 CYP 2C19, sequence (P33261 whole entry): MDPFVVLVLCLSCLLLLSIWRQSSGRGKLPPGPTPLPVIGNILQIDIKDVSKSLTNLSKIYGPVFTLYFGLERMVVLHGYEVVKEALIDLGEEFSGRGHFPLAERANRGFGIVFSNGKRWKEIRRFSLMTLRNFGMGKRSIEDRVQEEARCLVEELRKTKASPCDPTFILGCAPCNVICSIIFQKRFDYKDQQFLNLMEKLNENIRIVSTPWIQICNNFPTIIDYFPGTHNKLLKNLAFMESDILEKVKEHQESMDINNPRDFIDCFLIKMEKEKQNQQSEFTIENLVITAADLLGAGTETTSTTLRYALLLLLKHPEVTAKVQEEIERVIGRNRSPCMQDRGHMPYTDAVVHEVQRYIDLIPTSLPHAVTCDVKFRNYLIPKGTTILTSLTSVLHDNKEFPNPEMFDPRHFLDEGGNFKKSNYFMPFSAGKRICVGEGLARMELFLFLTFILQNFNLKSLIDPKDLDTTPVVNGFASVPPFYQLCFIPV
cytochrome P450 CYP 2C9, sequence (P11712 whole entry): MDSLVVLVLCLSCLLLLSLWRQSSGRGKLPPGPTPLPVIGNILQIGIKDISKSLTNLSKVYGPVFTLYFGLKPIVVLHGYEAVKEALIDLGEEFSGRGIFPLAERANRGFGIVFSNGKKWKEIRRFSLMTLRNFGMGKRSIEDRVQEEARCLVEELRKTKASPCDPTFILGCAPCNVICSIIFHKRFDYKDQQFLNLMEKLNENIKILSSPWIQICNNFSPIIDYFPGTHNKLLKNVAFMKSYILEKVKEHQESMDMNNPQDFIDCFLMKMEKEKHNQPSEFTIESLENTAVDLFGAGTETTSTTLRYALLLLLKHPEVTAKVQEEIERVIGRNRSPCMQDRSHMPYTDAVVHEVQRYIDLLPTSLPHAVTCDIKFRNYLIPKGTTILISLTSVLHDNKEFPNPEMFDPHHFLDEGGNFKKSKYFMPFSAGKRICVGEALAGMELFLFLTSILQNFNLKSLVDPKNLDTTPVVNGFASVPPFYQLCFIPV

Question: Which EC50 (human μ-opioid receptor) does the source give for CC(C)C[C@@H](NC(=O)[C@@H](Cc1ccccc1)NC(=O)[C@H](N)Cc1ccccc1)C(=O)N[C@H](CCCCN)C(=O)N1CCC=C(B(O)O)C1 [TM-5] here?
Answer: > 10 µM

Question: What about the EC50 (human δ-opioid receptor) of the same compound?
Answer: > 10 µM

Question: What about the EC50 (human κ-opioid receptor) of the same compound?
Answer: 0.027 nM

Question: Which EC50 (human μ-opioid receptor) does the source give for COCCOCCNCCCC[C@@H](NC(=O)[C@@H](CC(C)C)NC(=O)[C@@H](Cc1ccccc1)NC(=O)[C@H](N)Cc1ccccc1)C(=O)N1CC[C@H](B(O)O)C1 [TM-22B, (S)-1-(N2-D-Phe-D-Phe-D-Leu-N6-(2-(2-methoxyethoxy)ethyl)-D-Lys)-3-pyrrolidineboronic acid] here?
Answer: > 10 µM

Question: And the IC50 (cytochrome P450 CYP 2C19)?
Answer: > 50 µM

Question: And the Papp A→B at 120 min, 5 μM [1]?
Answer: < 0.1 ×10⁻⁶ cm/s

Question: What about the IC50 (cytochrome P450 CYP 3A4) of the same compound?
Answer: > 50 µM

Question: What about the IC50 (cytochrome P450 CYP 2C9) of the same compound?
Answer: > 50 µM

Question: What about the EC50 (human δ-opioid receptor) of the same compound?
Answer: > 10 µM

Question: What about the IC50 (cytochrome P450 CYP 1A2) of the same compound?
Answer: > 50 µM

Question: What about the EC50 (human κ-opioid receptor) of the same compound?
Answer: 0.0095 nM

Question: What about the IC50 (cytochrome P450 CYP 2D6) of the same compound?
Answer: > 50 µM

Question: Which results are given for CC(C)C[C@@H](NC(=O)[C@@H](Cc1ccccc1)NC(=O)[C@H](N)Cc1ccccc1)C(=O)N[C@H](CCCCN)C(=O)N1CCC2(CC1)CC(B(O)O)C2 [TM-7]?
Answer: EC50 (human μ-opioid receptor): > 10 µM; EC50 (human δ-opioid receptor): > 10 µM; EC50 (human κ-opioid receptor): 0.0087 nM

Question: Which results are given for CC(C)C[C@@H](NC(=O)[C@@H](Cc1ccccc1)NC(=O)[C@H](N)Cc1ccccc1)C(=O)N[C@H](CCCCN)C(=O)N1CCC(N)(B(O)O)CC1 [TM-8]?
Answer: EC50 (human μ-opioid receptor): > 10 µM; Papp A→B at 120 min, 5 μM [1]: < 0.1 ×10⁻⁶ cm/s; EC50 (human δ-opioid receptor): > 10 µM; EC50 (human κ-opioid receptor): 0.0846 nM

Question: For CC(C)C[C@@H](NC(=O)[C@@H](Cc1ccccc1)NC(=O)[C@H](N)Cc1ccccc1)C(=O)N[C@H](CCCCN)C(=O)N1CCC(B(O)O)CC1 [TM-1], which EC50 (human μ-opioid receptor) is on record?
Answer: > 10 µM

Question: And the EC50 (human δ-opioid receptor)?
Answer: > 10 µM

Question: And the EC50 (human κ-opioid receptor)?
Answer: 0.0984 nM

Question: With CC(C)C[C@@H](NC(=O)[C@@H](Cc1ccccc1)NC(=O)[C@H](N)Cc1ccccc1)C(=O)N[C@H](CCCCN)C(=O)N1CC[C@@H](B(O)O)C1 [TM-2A, (R)-1-(D-Phe-D-Phe-D-Leu-D-Lys)-3-pyrrolidineboronic acid] as the compound, how does the EC50 (human μ-opioid receptor) read?
Answer: > 10 µM

Question: And the Papp A→B at 120 min, 5 μM [1]?
Answer: < 0.05 ×10⁻⁶ cm/s

Question: What about the ED50 (ICR male mice) of the same compound?
Answer: 0.679 µg/kg

Question: What about the EC50 (human δ-opioid receptor) of the same compound?
Answer: > 10 µM

Question: And the EC50 (human κ-opioid receptor)?
Answer: 0.0331 nM

Question: For CC(C)C[C@@H](NC(=O)[C@@H](Cc1ccccc1)NC(=O)[C@H](N)Cc1ccccc1)C(=O)N[C@H](CCCCN)C(=O)NCCB(O)O [TM-26], which IC50 (cytochrome P450 CYP 2C19; microsomes) is on record?
Answer: > 50 µM

Question: What about the Papp A→B at 120 min, 5 μM [1] of the same compound?
Answer: < 0.1 ×10⁻⁶ cm/s

Question: And the IC50 (cytochrome P450 CYP 3A4; microsomes)?
Answer: > 50 µM

Question: What about the IC50 (cytochrome P450 CYP 2C9; microsomes) of the same compound?
Answer: > 50 µM

Question: What about the IC50 (cytochrome P450 CYP 1A2; microsomes) of the same compound?
Answer: > 50 µM

Question: And the IC50 (cytochrome P450 CYP 2D6; microsomes)?
Answer: > 50 µM

Question: For CC(C)C[C@@H](NC(=O)[C@@H](Cc1ccccc1)NC(=O)[C@H](N)Cc1ccccc1)C(=O)N[C@H](CCCCN)C(=O)N1CCC[C@H]1B(O)O [TM-9A, (R)-1-(D-Phe-D-Phe-D-Leu-D-Lys)-2-pyrrolidineboronic acid], which EC50 (human μ-opioid receptor) is on record?
Answer: > 10 µM

Question: What about the Papp A→B at 120 min, 5 μM [1] of the same compound?
Answer: < 0.05 ×10⁻⁶ cm/s

Question: What about the ED50 (ICR male mice) of the same compound?
Answer: 0.377 µg/kg

Question: What about the EC50 (human δ-opioid receptor) of the same compound?
Answer: > 10 µM

Question: For CC(C)C[C@@H](NC(=O)[C@@H](Cc1ccccc1)NC(=O)[C@H](N)Cc1ccccc1)C(=O)N[C@H](CCCCN)C(=O)N1CC=C(B(O)O)C1 [TM-3], which EC50 (human μ-opioid receptor) is on record?
Answer: > 10 µM

Question: What about the Papp A→B at 120 min, 5 μM [1] of the same compound?
Answer: < 0.2 ×10⁻⁶ cm/s

Question: What about the EC50 (human δ-opioid receptor) of the same compound?
Answer: > 10 µM

Question: What about the EC50 (human κ-opioid receptor) of the same compound?
Answer: 0.0547 nM

Question: With CC(C)C[C@@H](NC(=O)[C@@H](Cc1ccccc1)NC(=O)[C@H](N)Cc1ccccc1)C(=O)N[C@H](CCCCN)C(=O)N1CCCC[C@H]1B(O)O [TM-13A, (R)-1-(D-Phe-D-Phe-D-Leu-D-Lys)-2-piperidine boronic acid] as the compound, how does the EC50 (human μ-opioid receptor) read?
Answer: > 10 µM

Question: What about the EC50 (human δ-opioid receptor) of the same compound?
Answer: > 10 µM

Question: What about the EC50 (human κ-opioid receptor) of the same compound?
Answer: 0.0946 nM

From patent US11643436B2, “Polypeptide compound, pharmaceutical composition, preparation method and application thereof” (CHENGDU SINTANOVO BIOTECHNOLOGY CO., LTD., priority 2019, dated 2023)
